Results taken from the supplement of paper PMC11451515.

Key:
Conditions in all cases: 48 h
[1] = test system: NOMO1; assay: cell viability relative to DMSO control; higher = less cytotoxic
Summary of the method: (§1)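 NOMO1, SEM and P12-Ichikawa leukemia cells spent at least four passages adapting to each medium before use. They were seeded at 500 cells/well (NOMO1, SEM) or 1000 cells/well (P12-Ichikawa) in 5 μl in 1536-well plates and pin-dosed with library compounds in DMSO at 11 threefold steps from 47 μM down to 0.79 nM. After 48 h at 37°C, CellTiter-Glo One luminescence was read. Viability is reported as a percentage of the DMSO wells on each plate, with cell-free wells as background.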

[2] = test system: P12-Ichikawa; assay: as above
Summary of the method: as §1

[3] = test system: SEM cells; assay: as above
Summary of the method: as §1

[4] = test system: NOMO1; assay: AUC of viability dose-response curve (% viability x log10 dose units); higher = less sensitive
Summary of the method: (§2)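 Library compounds in DMSO were applied for 48 h at 37°C at 11 threefold doses (47 μM to 0.79 nM) to medium-adapted leukemia cells in 1536-well plates holding 500 or 1000 cells/well. Luminescence from CellTiter-Glo One was normalised plate by plate against DMSO and cell-free wells. Area under the curve came from trapezoidal integration of a log-logistic fit, after scaling curves that rose above full viability and discarding those that failed quality control. The fit had four parameters and used log10 doses.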

[5] = test system: P12-Ichikawa; assay: as above
Summary of the method: as §2

[6] = test system: SEM cells; assay: as above
Summary of the method: as §2

CC[C@H](/C=C/[C@@H](C)[C@H]1CC[C@H]2[C@@H]3CC=C4C[C@@H](O)CC[C@]4(C)[C@H]3CC[C@]12C)C(C)C
cell viability [%]
Conditions | [1] | [2] | [3]
HPLM + 10% dialyzed FBS, 0.000781 µM | 104 | 100 | 100
HPLM + 10% dialyzed FBS, 0.00234 µM | 112 | 109 | 77.3
HPLM + 10% dialyzed FBS, 0.00702 µM | 110 | 94.3 | 94.8
HPLM + 10% dialyzed FBS, 0.0211 µM | 98.9 | 99.3 | 94.8
HPLM + 10% dialyzed FBS, 0.0632 µM | 104 | 104 | 86.4
HPLM + 10% dialyzed FBS, 0.19 µM | 102 | 101 | 108
HPLM + 10% dialyzed FBS, 0.569 µM | 97.3 | 99.5 | 81.7
HPLM + 10% dialyzed FBS, 1.71 µM | 96.7 | 93.2 | 100
HPLM + 10% dialyzed FBS, 5.12 µM | 80.6 | 87.7 | 95.3
HPLM + 10% dialyzed FBS, 15.4 µM | 73.7 | 85.9 | 79.1
HPLM + 10% dialyzed FBS, 46.1 µM | 58.2 | 87.5 | 89.3
RPMI 5 mM glucose + 10% FBS, 0.000781 µM | 89.3 | 92.9 | 102
RPMI 5 mM glucose + 10% FBS, 0.00234 µM | 94.3 | 94.3 | 83.8
RPMI 5 mM glucose + 10% FBS, 0.00702 µM | 101 | 97.1 | 103
RPMI 5 mM glucose + 10% FBS, 0.0211 µM | 105 | 95.9 | 95.2
RPMI 5 mM glucose + 10% FBS, 0.0632 µM | 92.9 | 105 | 101
RPMI 5 mM glucose + 10% FBS, 0.19 µM | 90.7 | 96.3 | 96.8
RPMI 5 mM glucose + 10% FBS, 0.569 µM | 88.8 | 94.9 | 93.3
RPMI 5 mM glucose + 10% FBS, 1.71 µM | 92.8 | 91.3 | 104
RPMI 5 mM glucose + 10% FBS, 5.12 µM | 81.1 | 89.6 | 105
RPMI 5 mM glucose + 10% FBS, 15.4 µM | 81.3 | 83.9 | 87.4
RPMI 5 mM glucose + 10% FBS, 46.1 µM | 78.7 | 93.7 | 84.2
RPMI 5 mM glucose + 10% dialyzed FBS, 0.000781 µM | 98.2 | 92.7 | 98
RPMI 5 mM glucose + 10% dialyzed FBS, 0.00234 µM | 89.4 | 95.2 | 92.7
RPMI 5 mM glucose + 10% dialyzed FBS, 0.00702 µM | 91.1 | 93 | 93.3
RPMI 5 mM glucose + 10% dialyzed FBS, 0.0211 µM | 84.5 | 87.3 | 104
RPMI 5 mM glucose + 10% dialyzed FBS, 0.0632 µM | 96.1 | 91.8 | 111
RPMI 5 mM glucose + 10% dialyzed FBS, 0.19 µM | 89.5 | 94.6 | 90.6
RPMI 5 mM glucose + 10% dialyzed FBS, 0.569 µM | 86 | 88.4 | 93.5
RPMI 5 mM glucose + 10% dialyzed FBS, 1.71 µM | 95.1 | 87.8 | 108
RPMI 5 mM glucose + 10% dialyzed FBS, 5.12 µM | 94.5 | 87 | 94.1
RPMI 5 mM glucose + 10% dialyzed FBS, 15.4 µM | 68.3 | 85.2 | 87.6
RPMI 5 mM glucose + 10% dialyzed FBS, 46.1 µM | 69.6 | 86.6 | 93.5

AUC of viability dose-response curve
Conditions | [4] | [5] | [6]
HPLM + 10% dialyzed FBS | 427 | 456 | 438
RPMI 5 mM glucose + 10% FBS | 434 | 449 | 458
RPMI 5 mM glucose + 10% dialyzed FBS | 421 | 429 | 463

CCN1CCN(c2ccc(Nc3cc(N(C)C(=O)Nc4c(Cl)c(OC)cc(OC)c4Cl)ncn3)cc2)CC1
cell viability [%]
Conditions | [1] | [2] | [3]
HPLM + 10% dialyzed FBS, 0.000781 µM | 103 | 107 | 95
HPLM + 10% dialyzed FBS, 0.00234 µM | 120 | 109 | 63.6
HPLM + 10% dialyzed FBS, 0.00702 µM | 124 | 103 | 102
HPLM + 10% dialyzed FBS, 0.0211 µM | 124 | 108 | 93.3
HPLM + 10% dialyzed FBS, 0.0632 µM | 102 | 106 | 102
HPLM + 10% dialyzed FBS, 0.19 µM | 117 | 97.8 | 96.9
HPLM + 10% dialyzed FBS, 0.569 µM | 98.8 | 97.4 | 84.2
HPLM + 10% dialyzed FBS, 1.71 µM | 90.9 | 105 | 82.9
HPLM + 10% dialyzed FBS, 5.12 µM | 41.7 | 77.7 | 35.5
HPLM + 10% dialyzed FBS, 15.4 µM | 25.9 | 73.3 | 17
HPLM + 10% dialyzed FBS, 46.1 µM | 11.6 | 35.3 | 5.71
RPMI 5 mM glucose + 10% FBS, 0.000781 µM | 119 | 115 | 90.1
RPMI 5 mM glucose + 10% FBS, 0.00234 µM | 131 | 114 | 104
RPMI 5 mM glucose + 10% FBS, 0.00702 µM | 114 | 119 | 92.3
RPMI 5 mM glucose + 10% FBS, 0.0211 µM | 118 | 124 | 102
RPMI 5 mM glucose + 10% FBS, 0.0632 µM | 110 | 118 | 84.2
RPMI 5 mM glucose + 10% FBS, 0.19 µM | 118 | 118 | 90.4
RPMI 5 mM glucose + 10% FBS, 0.569 µM | 121 | 113 | 73.4
RPMI 5 mM glucose + 10% FBS, 1.71 µM | 111 | 115 | 60.9
RPMI 5 mM glucose + 10% FBS, 5.12 µM | 63.3 | 86 | 5.11
RPMI 5 mM glucose + 10% FBS, 15.4 µM | 34.3 | 76.7 | 4.6
RPMI 5 mM glucose + 10% FBS, 46.1 µM | 15.9 | 47.6 | 1.95
RPMI 5 mM glucose + 10% dialyzed FBS, 0.000781 µM | 103 | 114 | 103
RPMI 5 mM glucose + 10% dialyzed FBS, 0.00234 µM | 106 | 112 | 84
RPMI 5 mM glucose + 10% dialyzed FBS, 0.00702 µM | 119 | 108 | 110
RPMI 5 mM glucose + 10% dialyzed FBS, 0.0211 µM | 116 | 124 | 96
RPMI 5 mM glucose + 10% dialyzed FBS, 0.0632 µM | 130 | 114 | 118
RPMI 5 mM glucose + 10% dialyzed FBS, 0.19 µM | 103 | 126 | 95.6
RPMI 5 mM glucose + 10% dialyzed FBS, 0.569 µM | 111 | 111 | 92.8
RPMI 5 mM glucose + 10% dialyzed FBS, 1.71 µM | 108 | 110 | 71.6
RPMI 5 mM glucose + 10% dialyzed FBS, 5.12 µM | 68.8 | 76.8 | 8.12
RPMI 5 mM glucose + 10% dialyzed FBS, 15.4 µM | 32.7 | 66.8 | 6.53
RPMI 5 mM glucose + 10% dialyzed FBS, 46.1 µM | 14.9 | 53.2 | 2.21

AUC of viability dose-response curve
Conditions | [4] | [5] | [6]
HPLM + 10% dialyzed FBS | 372 | 429 | 347
RPMI 5 mM glucose + 10% FBS | 395 | 428 | 316
RPMI 5 mM glucose + 10% dialyzed FBS | 399 | 423 | 351
